Laboratory results taken from patent US20180371044A1, “PEPTIDOMIMETIC MACROCYCLES” (Aileron Therapeutics, Inc., priority 2015, published 2018).
Where a SMILES comes first, the peptide text is derived from it. Bridges are numbered along the chain shown (N, C = ends). [ ]: non-standard residue; d: D form. NMeY = CN[C@@H](Cc1ccc(O)cc1)C(=O)O; R8 = C=CCCCCCC[C@@](C)(N)C(=O)O; S5 = C=CCCC[C@](C)(N)C(=O)O; Nle = CCCC[C@H](N)C(=O)O; Abu = CC[C@H](N)C(=O)O; Aib = CC(C)(N)C(=O)O

Molecular target: T1, human GHRH receptor (hGHRHR) (Homo sapiens, UniProt Q02643)
T1 construct: expressed in transfected cells; host or cells: Human 293 cells
T1 sequence (Q02643 23-423): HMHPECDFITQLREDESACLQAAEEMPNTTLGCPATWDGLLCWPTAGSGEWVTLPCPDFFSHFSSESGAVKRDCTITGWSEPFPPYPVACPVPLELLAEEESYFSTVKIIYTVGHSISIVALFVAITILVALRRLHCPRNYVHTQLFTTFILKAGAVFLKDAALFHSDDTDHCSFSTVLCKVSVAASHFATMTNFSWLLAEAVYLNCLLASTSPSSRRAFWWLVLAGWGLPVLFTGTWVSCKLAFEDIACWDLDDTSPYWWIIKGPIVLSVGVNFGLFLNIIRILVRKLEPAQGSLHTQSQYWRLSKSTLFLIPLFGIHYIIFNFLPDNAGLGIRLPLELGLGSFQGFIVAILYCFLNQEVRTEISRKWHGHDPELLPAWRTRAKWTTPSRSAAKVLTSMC
Assay: GHRHR agonism measured by cAMP (HTRF) in human 293 cells expressing hGHRHR;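 note: receptor expressed transiently or stably, cells stimulated in serum-free medium, EC50 from a non-linear dose-response fit, maximal response defined by reference GHRH stimulation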
Type: cell-based
Conditions: 30 min at RT

Row | Compound | EC50 [nM]
1 | CCCC[C@H](NC(=O)[C@@H](NC(=O)[C@H](CC(=O)O)NC(=O)[C@H](CCC(N)=O)NC(=O)[C@H](CC(C)C)NC(=O)[C@H](C)NC(=O)[C@H](CCCCN)NC(=O)[C@H](CCCNC(=N)N)NC(=O)[C@H](C)NC(=O)[C@H](CO)NC(=O)[C@H](CC(C)C)NC(=O)[C@H](CCC(N)=O)NC(=O)[C@H](C)NC(=O)[C@H](CC(C)C)NC(=O)[C@@H](NC(=O)[C@H](CCCCN)NC(=O)[C@H](CCCNC(=N)N)NC(=O)[C@H](Cc1ccc(O)cc1)NC(=O)[C@H](CO)NC(=O)[C@H](CCC(N)=O)NC(=O)[C@@H](NC(=O)[C@H](Cc1ccccc1)NC(=O)[C@@H](NC(=O)[C@H](C)NC(=O)[C@H](CC(=O)O)NC(=O)[C@H](C)NC(=O)[C@H](Cc1ccc(O)cc1)NC)[C@@H](C)CC)[C@@H](C)O)C(C)C)[C@@H](C)CC)C(=O)N[C@@H](CO)C(=O)N[C@@H](CCCNC(=N)N)C(N)=O [SP-43] (H-[NMeY]ADAIFTQSYRKVLAQLSARKALQDI[Nle]SR-NH2) | ≤ 1
2 | CCCC[C@H](NC(=O)[C@@H](NC(=O)[C@H](CC(=O)O)NC(=O)[C@H](CCC(N)=O)NC(=O)[C@H](CC(C)C)NC(=O)[C@H](C)NC(=O)[C@H](CCCCN)NC(=O)[C@H](CCCNC(=N)N)NC(=O)[C@H](C)NC(=O)[C@H](CO)NC(=O)[C@H](CC(C)C)NC(=O)[C@H](CCC(N)=O)NC(=O)[C@H](C)NC(=O)[C@H](CC(C)C)NC(=O)[C@@H](NC(=O)[C@H](CCCCN)NC(=O)[C@H](CCCNC(=N)N)NC(=O)[C@H](Cc1ccc(O)cc1)NC(=O)[C@H](CO)NC(=O)[C@@H](NC(=O)[C@@H](NC(=O)[C@H](Cc1ccccc1)NC(=O)[C@@H](NC(=O)[C@H](C)NC(=O)[C@H](CC(=O)O)NC(=O)[C@H](C)NC(=O)[C@H](Cc1ccc(O)cc1)NC)[C@@H](C)CC)[C@@H](C)O)[C@@H](C)O)C(C)C)[C@@H](C)CC)C(=O)N[C@@H](CO)C(=O)N[C@@H](CCCNC(=N)N)C(N)=O [SP-42] (H-[NMeY]ADAIFTTSYRKVLAQLSARKALQDI[Nle]SR-NH2) | 1 to 10
3 | CCCC[C@H](NC(=O)[C@@H](NC(=O)[C@H](CC(=O)O)NC(=O)[C@H](CCC(N)=O)NC(=O)[C@H](CC(C)C)NC(=O)[C@H](C)NC(=O)[C@H](CCCCN)NC(=O)[C@H](CCCNC(=N)N)NC(=O)[C@H](C)NC(=O)[C@H](CO)NC(=O)[C@H](CC(C)C)NC(=O)[C@H](CCC(N)=O)NC(=O)[C@H](CC)NC(=O)[C@H](CC(C)C)NC(=O)[C@@H](NC(=O)[C@H](CCCCN)NC(=O)[C@H](CCCNC(=N)N)NC(=O)[C@H](Cc1ccc(O)cc1)NC(=O)[C@H](CO)NC(=O)[C@H](C)NC(=O)[C@@H](NC(=O)[C@H](Cc1ccccc1)NC(=O)[C@@H](NC(=O)[C@H](C)NC(=O)[C@H](CC(=O)O)NC(=O)[C@H](C)NC(=O)[C@H](Cc1ccc(O)cc1)NC)[C@@H](C)CC)[C@@H](C)O)C(C)C)[C@@H](C)CC)C(=O)N[C@@H](CO)C(=O)N[C@@H](CCCNC(=N)N)C(N)=O [SP-44] (H-[NMeY]ADAIFTASYRKVL[Abu]QLSARKALQDI[Nle]SR-NH2) | 1 to 10
4 | CCCC[C@H](NC(=O)[C@@H](NC(=O)[C@H](CC(=O)O)NC(=O)[C@H](CCC(N)=O)NC(=O)[C@H](CC(C)C)NC(=O)[C@H](C)NC(=O)[C@H](CCCCN)NC(=O)[C@H](CCCNC(=N)N)NC(=O)[C@H](C)NC(=O)[C@H](CO)NC(=O)[C@H](CC(C)C)NC(=O)[C@H](CCC(N)=O)NC(=O)[C@H](C)NC(=O)[C@H](CC(C)C)NC(=O)[C@@H](NC(=O)[C@H](CCCCN)NC(=O)[C@H](CCCNC(=N)N)NC(=O)[C@H](Cc1ccc(O)cc1)NC(=O)[C@H](CO)NC(=O)[C@H](C)NC(=O)[C@@H](NC(=O)[C@H](Cc1ccccc1)NC(=O)[C@@H](NC(=O)[C@H](C)NC(=O)[C@H](CC(=O)O)NC(=O)[C@@H](C)NC(=O)[C@@H](N)Cc1ccc(O)cc1)[C@@H](C)CC)[C@@H](C)O)C(C)C)[C@@H](C)CC)C(=O)N[C@@H](CO)C(=O)N[C@@H](CCCNC(=N)N)C(N)=O [SP-46] (H-Y[dA]DAIFTASYRKVLAQLSARKALQDI[Nle]SR-NH2) | ≤ 1
5 | CCCC[C@H](NC(=O)[C@@H](NC(=O)[C@H](CC(=O)O)NC(=O)[C@H](CCC(N)=O)NC(=O)[C@H](CC(C)C)NC(=O)C(C)(C)NC(=O)[C@H](CCCCN)NC(=O)[C@H](CCCNC(=N)N)NC(=O)[C@]1(C)CCCC=CCCCCCC[C@@](C)(NC(=O)[C@H](CCCNC(=N)N)NC(=O)[C@H](Cc2ccc(O)cc2)NC(=O)[C@H](CO)NC(=O)[C@H](C)NC(=O)[C@@H](NC(=O)[C@H](Cc2ccccc2)NC(=O)[C@@H](NC(=O)[C@H](C)NC(=O)[C@H](CC(=O)O)NC(=O)[C@H](C)NC(=O)[C@H](Cc2ccc(O)cc2)NC)[C@@H](C)CC)[C@@H](C)O)C(=O)N[C@@H](C(C)C)C(=O)N[C@@H](CC(C)C)C(=O)N[C@@H](C)C(=O)N[C@@H](CCC(N)=O)C(=O)N[C@@H](CC(C)C)C(=O)N[C@@H](CO)C(=O)N1)[C@@H](C)CC)C(=O)N[C@@H](CO)C(=O)N[C@@H](CCCNC(=N)N)C(N)=O [SP-65] (H-[NMeY]ADAIFTASYR[R8]VLAQLS[S5]RK[Aib]LQDI[Nle]SR-NH2; staple 12-19) | 25 to 50
6 | CCCC[C@H](NC(=O)[C@@H](NC(=O)[C@H](CC(=O)O)NC(=O)[C@H](CCC(N)=O)NC(=O)[C@H](CC(C)C)NC(=O)[C@H](C)NC(=O)[C@H](CCCCN)NC(=O)[C@H](CCCNC(=N)N)NC(=O)[C@]1(C)CCCC=CCCCCCC[C@@](C)(NC(=O)[C@H](CCCNC(=N)N)NC(=O)[C@H](Cc2ccc(O)cc2)NC(=O)[C@H](CO)NC(=O)[C@H](C)NC(=O)[C@@H](NC(=O)[C@H](Cc2ccccc2)NC(=O)[C@@H](NC(=O)[C@H](C)NC(=O)[C@H](CC(=O)O)NC(=O)[C@H](C)NC(=O)[C@H](Cc2ccc(O)cc2)NC)[C@@H](C)CC)[C@@H](C)O)C(=O)N[C@@H](C(C)C)C(=O)N[C@@H](CC(C)C)C(=O)N[C@@H](C)C(=O)N[C@@H](CCC(N)=O)C(=O)N[C@@H](CC(C)C)C(=O)N[C@@H](CO)C(=O)N1)[C@@H](C)CC)C(=O)N[C@@H](CO)C(N)=O [SP-60] (H-[NMeY]ADAIFTASYR[R8]VLAQLS[S5]RKALQDI[Nle]S-NH2; staple 12-19) | 25 to 50
7 | CCCC[C@H](NC(=O)[C@@H](NC(=O)[C@H](CC(=O)O)NC(=O)[C@H](CCC(N)=O)NC(=O)[C@H](CC(C)C)NC(=O)[C@H](C)NC(=O)[C@]1(C)CCCC=CCCCCCC[C@@](C)(NC(=O)[C@@H](NC(=O)[C@H](CCCCN)NC(=O)[C@H](CCCNC(=N)N)NC(=O)[C@H](Cc2ccc(O)cc2)NC(=O)[C@H](CO)NC(=O)[C@H](C)NC(=O)[C@@H](NC(=O)[C@H](Cc2ccccc2)NC(=O)[C@@H](NC(=O)[C@H](C)NC(=O)[C@H](CC(=O)O)NC(=O)[C@H](C)NC(=O)[C@H](Cc2ccc(O)cc2)NC)[C@@H](C)CC)[C@@H](C)O)C(C)C)C(=O)N[C@@H](C)C(=O)N[C@@H](CCC(N)=O)C(=O)N[C@@H](CC(C)C)C(=O)N[C@@H](CO)C(=O)N[C@@H](C)C(=O)N[C@@H](CCCNC(=N)N)C(=O)N1)[C@@H](C)CC)C(=O)N[C@@H](CO)C(=O)N[C@@H](CCCNC(=N)N)C(N)=O [SP-26] (H-[NMeY]ADAIFTASYRKV[R8]AQLSAR[S5]ALQDI[Nle]SR-NH2; staple 14-21) | 10 to 25
8 | CCCC[C@H](NC(=O)[C@@H](NC(=O)[C@]1(C)CCCC=CCCCCCC[C@@](C)(NC(=O)[C@H](CC(C)C)NC(=O)[C@H](CCC(N)=O)NC(=O)[C@H](C)NC(=O)[C@H](CC(C)C)NC(=O)[C@@H](NC(=O)[C@H](CCCCN)NC(=O)[C@H](CCCNC(=N)N)NC(=O)[C@H](Cc2ccc(O)cc2)NC(=O)[C@H](CO)NC(=O)[C@H](C)NC(=O)[C@@H](NC(=O)[C@H](Cc2ccccc2)NC(=O)[C@@H](NC(=O)[C@H](C)NC(=O)[C@H](CC(=O)O)NC(=O)[C@H](C)NC(=O)[C@H](Cc2ccc(O)cc2)NC)[C@@H](C)CC)[C@@H](C)O)C(C)C)C(=O)N[C@@H](C)C(=O)N[C@@H](CCCNC(=N)N)C(=O)N[C@@H](CCCCN)C(=O)N[C@@H](C)C(=O)N[C@@H](CC(C)C)C(=O)N[C@@H](CCC(N)=O)C(=O)N1)[C@@H](C)CC)C(=O)N[C@@H](CO)C(=O)N[C@@H](CCCNC(=N)N)C(N)=O [SP-30] (H-[NMeY]ADAIFTASYRKVLAQL[R8]ARKALQ[S5]I[Nle]SR-NH2; staple 18-25) | 1 to 10
9 | CCCC[C@H](NC(=O)[C@@H](NC(=O)[C@H](CC(=O)O)NC(=O)[C@H](CCC(N)=O)NC(=O)[C@H](CC(C)C)NC(=O)[C@H](CC(C)C)NC(=O)[C@H](CCCCN)NC(=O)[C@H](CCCNC(=N)N)NC(=O)[C@]1(C)CCCC=CCCCCCC[C@@](C)(NC(=O)[C@H](CCCNC(=N)N)NC(=O)[C@H](Cc2ccc(O)cc2)NC(=O)[C@H](CO)NC(=O)[C@H](CC(N)=O)NC(=O)[C@@H](NC(=O)[C@H](Cc2ccccc2)NC(=O)[C@@H](NC(=O)[C@H](C)NC(=O)[C@H](CC(=O)O)NC(=O)[C@@H](C)NC(=O)[C@@H](N)Cc2ccc(O)cc2)[C@@H](C)CC)[C@@H](C)O)C(=O)N[C@@H](C(C)C)C(=O)N[C@@H](CC(C)C)C(=O)NCC(=O)N[C@@H](CCC(N)=O)C(=O)N[C@@H](CC(C)C)C(=O)N[C@@H](CO)C(=O)N1)[C@@H](C)CC)C(=O)N[C@@H](CO)C(=O)N[C@@H](CCCNC(=N)N)C(N)=O [SP-4] (H-Y[dA]DAIFTNSYR[R8]VLGQLS[S5]RKLLQDI[Nle]SR-NH2; staple 12-19) | 10 to 25
